Results taken from patent publication US6177438A, “Morphinan derivatives and pharmaceutical use thereof” (priority 1993, dated 2001).
Structures can show the parent of a compound that is named as a salt.

Tests used:
[1] = tested on: acetic acid-induced writhing in ddy mice; assay: animal or person; format: in vivo, 5 week old ddy mice; details: for ED50: Mus musculus, sc, s.c. 15 minutes before acetic acid, read-out: ED50
Procedure: 5 week old ddy mice were used in this test. After intraperitoneal administration of 0.1 ml of 0.6% aqueous acetic acid per 10 g of body weight, the number of writhing reactions that occurred in 10 minutes starting 10 minutes after administration was evaluated for the indicator. The test drug was administered subcutaneously into the backs of the animals 15 minutes before administration of acetic acid.

[2] = Diuretic action (urine output for 5 hours after physiological saline loading in rats); format: in vivo, male Wistar rats; details: for ED (200% urine output) / ED (500% urine output): Rattus norvegicus, sc, 5 hours after saline 20 ml/kg p.o.; for ED (200% urine output): dose giving urine output of 200 (non-dosed group = 100); for ED (500% urine output): dose giving urine output of 500 (non-dosed group = 100)
Procedure: 7-8 week old male Wistar rats were used in this test after prohibiting from drinking water for 1 hour before the start of testing. After discharging any urine accumulated in the bladder by gently stimulating the lower abdomens of the animals, the drug was administered subcutaneously. After 30 minutes, the animals were then forcibly given 20 ml/kg of physiological saline orally. The animals were placed in metabolic cages immediately after administration of the drug (2 animals/cage) and urine output for 5 hours after loading with physiological saline was measured. Drug efficacy was expressed in the form of those doses resulting in urine outputs of 200 and 500, respectively, when the urine output of a non-dosed group was taken to be 100. Those doses were expressed as the ED200 and ED500 values, respectively.

Row | Structure (SMILES) | ED50 [1] [mg/kg] | ED (200% urine output) [2] [mg/kg] | ED (500% urine output) [2] [mg/kg] | analgesic activity ([1]; s.c., in words) | Diuretic action (in words) ([2]; s.c., from ED200 values)
1 | CN(C(=O)Cc1cccc(F)c1)[C@H]1CC[C@@]2(O)[C@H]3Cc4ccc(O)c5c4[C@@]2(CCN3CC2CC2)[C@H]1O5 [Compound 37, 17-cyclopropylmethyl-3,14β-dihydroxy-4,5α-epoxy-6α-(N-methyl-3-fluorophenylacetamido)morphinan.cndot.hydrochloride] | 0.0041 | 0.365 | – | – | –
2 | CN(C(=O)c1ccc(Cl)c(Cl)c1)[C@H]1CC[C@@]2(O)[C@H]3Cc4ccc(O)c5c4[C@@]2(CCN3CC2CC2)[C@H]1O5 [Compound 27, 17-cyclopropylmethyl-3,14β-dihydroxy-4,5α-epoxy-6α-(N-methyl-3,4-dichlorobenzamido)morphinan.cndot.hydrochloride] | 0.046 | 0.0248 | 2.08 | – | –
3 | COc1cccc(C#CC(=O)N(C)[C@H]2CC[C@@]3(O)[C@H]4Cc5ccc(O)c6c5[C@@]3(CCN4CC3CC3)[C@H]2O6)c1.O=C(O)C(O)C(O)C(=O)O [Compound 184, 17-cyclopropylmethyl-3,14β-dihydroxy-4,5α-epoxy-6α-[N-methyl-3-(3-methoxyphenyl)propiolamido]morphinan tartrate] | 0.0043 | 0.00444 | 0.0326 | – | –
4 | CN(C(=O)Cc1csc2ccccc12)[C@H]1CC[C@@]2(O)[C@H]3Cc4ccc(O)c5c4[C@@]2(CCN3CC2CC2)[C@H]1O5 [Compound 107, 17-cyclopropylmethyl-3,14β-dihydroxy-4,5α-epoxy-6α-(N-methyl-3-benzo[b]thienylacetamido)morphinan.cndot.hydrochloride] | 0.023 | 0.0061 | 0.2 | – | –
5 | CN(C(=O)CSc1ccccc1)[C@@H]1CC[C@@]2(O)[C@H]3Cc4ccc(O)c5c4[C@@]2(CCN3CC2CC2)[C@H]1O5 [Compound 65, 17-cyclopropylmethyl-3,14β-dihydroxy-4,5α-epoxy-6β-(N-methylthiophenoxyacetamido)morphinan.cndot.tartrate] | 0.15 | 0.119 | 5.31 | – | –
6 | C/C=C/C=C/C(=O)N(C)[C@@H]1CC[C@@]2(O)[C@H]3Cc4ccc(O)c5c4[C@@]2(CCN3CC2CC2)[C@H]1O5 [Compound 178, 17-cyclopropylmethyl-3,14β-dihydroxy-4,5α-epoxy-6β-(N-methyl-trans,trans-2,4-hexadienoylamido)morphinan tartrate] | 0.0016 | 0.00094 | 0.0045 | particularly strong analgesic activity | extremely strong diuretic action
7 | CN(C(=O)Cc1ccc(Br)cc1)[C@H]1CC[C@@]2(O)[C@H]3Cc4ccc(O)c5c4[C@@]2(CCN3CC2CC2)[C@H]1O5 [Compound 28, 17-cyclopropylmethyl-3,14β-dihydroxy-4,5α-epoxy-6α-(N-methyl-4-bromophenylacetamido)morphinan.cndot.hydrobromide] | 0.071 | 0.02 | 3.8 | – | –
8 | CCC/C=C/C(=O)N(C)[C@H]1CC[C@@]2(O)[C@H]3Cc4ccc(O)c5c4[C@@]2(CCN3CC2CC2)[C@H]1O5 [Compound 95, 17-cyclopropylmethyl-3,14β-dihydroxy-4,5α-epoxy-6α-(N-methyl-trans-2-hexenamido)morphinan.cndot.tartrate] | 0.0081 | 0.0028 | 0.0968 | – | –
9 | CN(C(=O)Cc1cccc([N+](=O)[O-])c1)[C@H]1CC[C@@]2(O)[C@H]3Cc4ccc(O)c5c4[C@@]2(CCN3CC2CC2)[C@H]1O5 [Compound 83, 17-Cyclopropylmethyl-3,14β-dihydroxy-4,5α-epoxy-6α-(N-methyl-3-nitrophenylacetamido)morphinan.cndot.hydrochloride] | 0.008 | 0.0261 | 2.99 | – | –
10 | CN(C(=O)CCCCCc1ccccc1)[C@@H]1CC[C@@]2(O)[C@H]3Cc4ccc(O)c5c4[C@@]2(CCN3CC2CC2)[C@H]1O5 [Compound 202, 17-cyclopropylmethyl-3,14β-dihydroxy-4,5α-epoxy-6β-(N-methyl-6-phenylhexanoamido)morphinan hydrochloride] | 0.083 | – | – | – | –
